Assay results published in patent US20190055576A1, “USE OF HERBICIDE-TOLERANT PROTEIN” (BEIJING DABEINONG TECHNOLOGY GROUP CO., LTD., priority 2016, published 2019).

How the values were obtained:
Format in all cases: in vivo
[1] = tested on: wild-type soybean plants (CK1); assay: Sulfometuron-methyl tolerance of wild-type soybean plants, damage degree; settings: 120 g ai/ha
Text: (§1) The herbicide tolerance effects of Gm cytoplasmic ALT-1-01 soybean plants, Gm chloroplastic ALT-1-01 soybean plants, Gm cytoplasmic ALT-2-01 soybean plants, Gm chloroplastic ALT-2-01 soybean plants, Gm cytoplasmic ALT-3-01 soybean plants, Gm chloroplastic ALT-3-01 soybean plants and wild-type soybean plants on Sulfometuron-methyl were detected (at seedling stage), respectively.
Gm cytoplasmic ALT-1-01 soybean plants, Gm chloroplastic ALT-1-01 soybean plants, Gm cytoplasmic ALT-2-01 soybean plants, Gm chloroplastic ALT-2-01 soybean plants, Gm cytoplasmic ALT-3-01 soybean plants, Gm chloroplastic ALT-3-01 soybean plants and wild-type soybean plants were respectively taken and sprayed with Sulfometuron-methyl (120 g ai/ha, 4-fold field concentration) and a blank solvent (water). The damage degree caused by the herbicide was measured for each plant according to the leaf curl degree and the growth point damage degree 3 days after spraying (3 DAT), 7 days after spraying (7 DAT), 14 days after spraying (14 DAT) and 21 days after spraying (21 DAT), respectively: considering conditions of leaves being flat as the untreated plants and growth points being intact as having a damage degree of 0%; considering conditions of veins being locally browned, new leaves being malformed and plant growth being slow as having a damage degree of 50%; and considering conditions of veins being purple to whole plant being dead and growth points being browned and dry as having a damage degree of 100%. There were 2 strains in Gm cytoplasmic ALT-1-01 soybean plants in total (S1 and S2), 2 strains in Gm chloroplastic ALT-1-01 soybean plants in total (S3 and S4), 2 strains in Gm cytoplasmic ALT-2-01 soybean plants in total (S5 and S6), 2 strains in Gm chloroplastic ALT-2-01 soybean plants in total (S7 and S8), 2 strains in Gm cytoplasmic ALT-3-01 soybean plants in total (S9 and S10), 2 strains in Gm chloroplastic ALT-3-01 soybean plants in total (S11 and S12), and 1 strain in wild-type soybean plants (CK1) in total; and 10-15 plants were selected from each strain and tested.

[2] = tested on: transgenic maize plants (Zm cytoplasmic/chloroplastic ALT-1-02, ALT-2-02, ALT-3-02); assay: Sulfometuron-methyl tolerance of transgenic maize plants, damage degree by plant growth status; settings: 120 g ai/ha; for Average damage % 3DAT / Average damage % 7DAT / Average damage % 14DAT / Average damage % 21DAT: 4-fold field concentration; for Average damage % 3DAT: 3 days after spraying; for Average damage % 7DAT: 7 days after spraying; for Average damage % 14DAT: 14 days after spraying; for Average damage % 21DAT: 21 days after spraying
Text: as §1, with “Zm” for “Gm”, “ALT-1-02 maize” for “ALT-1-01 soybean”, “ALT-2-02 maize” for “ALT-2-01 soybean”, “ALT-3-02 maize” for “ALT-3-01 soybean”, “maize” for “soybean”, “V3-V4” for “seedling”
(§2) Zm cytoplasmic ALT-1-02 maize plants, Zm chloroplastic ALT-1-02 maize plants, Zm cytoplasmic ALT-2-02 maize plants, Zm chloroplastic ALT-2-02 maize plants, Zm cytoplasmic ALT-3-02 maize plants, Zm chloroplastic ALT-3-02 maize plants and wild-type maize plants were respectively taken and sprayed with Sulfometuron-methyl (120 g ai/ha, 4-fold field concentration) and a blank solvent (water). The damage degree caused by the herbicide was measured for each plant according to the plant growth status 3 days after spraying (3 DAT), 7 days after spraying (7 DAT), 14 days after spraying (14 DAT) and 21 days after spraying (21 DAT), respectively: considering a growth status equivalent to that of the untreated plants as having a damage degree of 0%; considering conditions of leaves being partially chlorotic and yellow but substantially not affecting the plant normal growth as having a damage degree of 50%; and considering the whole plant being purple and dying as having a damage degree of 100%. There were 2 strains in Zm cytoplasmic ALT-1-02 maize plants in total (S13 and S14), 2 strains in Zm chloroplastic ALT-1-02 maize plants in total (S15 and S16), 2 strains in Zm cytoplasmic ALT-2-02 maize plants in total (S17 and S18), 2 strains in Zm chloroplastic ALT-2-02 maize plants in total (S19 and S20), 2 strains in Zm cytoplasmic ALT-3-02 maize plants in total (S21 and S22), 2 strains in Zm chloroplastic ALT-3-02 maize plants in total (S23 and S24), and 1 strain in wild-type maize plants (CK2) in total; and 10-15 plants were selected from each strain and tested.

[3] = tested on: wild-type maize plants (CK2); assay: Sulfometuron-methyl tolerance of wild-type maize plants, damage degree; settings: 120 g ai/ha
Text: as §1, with “Zm” for “Gm”, “ALT-1-02 maize” for “ALT-1-01 soybean”, “ALT-2-02 maize” for “ALT-2-01 soybean”, “ALT-3-02 maize” for “ALT-3-01 soybean”, “maize” for “soybean”, “V3-V4” for “seedling”
as §2

[4] = strain S13 (Zm cytoplasmic ALT-1-02 maize)
[5] = strain S14 (Zm cytoplasmic ALT-1-02 maize)
[6] = strain S15 (Zm chloroplastic ALT-1-02 maize)
[7] = strain S16 (Zm chloroplastic ALT-1-02 maize)
[8] = strain S17 (Zm cytoplasmic ALT-2-02 maize)
[9] = strain S18 (Zm cytoplasmic ALT-2-02 maize)
[10] = strain S19 (Zm chloroplastic ALT-2-02 maize)
[11] = strain S20 (Zm chloroplastic ALT-2-02 maize)
[12] = strain S21 (Zm cytoplasmic ALT-3-02 maize)
[13] = strain S22 (Zm cytoplasmic ALT-3-02 maize)
[14] = strain S23 (Zm chloroplastic ALT-3-02 maize)
[15] = strain S24 (Zm chloroplastic ALT-3-02 maize)

COC(=O)c1ccccc1S(=O)(=O)NC(=O)Nc1nc(C)cc(C)n1 [Sulfometuron-methyl, 2-(4,6-dimethylpyrimidine-2-amino-formamido-sulfonyl) methyl benzoate]
Average damage % 3DAT ([1]; CK1 (wild-type soybean), 4-fold field concentration, 3 days after spraying): 49%
Average damage % 7DAT ([1]; CK1 (wild-type soybean), 4-fold field concentration, 7 days after spraying): 87%
Average damage % 14DAT ([1]; CK1 (wild-type soybean), 4-fold field concentration, 14 days after spraying): 100%
Average damage % 21DAT ([1]; CK1 (wild-type soybean), 4-fold field concentration, 21 days after spraying): 100%
herbicide tolerance of wild-type plants ([1]; wild-type soybean plants): not tolerant
Average damage % 3DAT [2, 4]: 6%
Average damage % 7DAT [2, 4]: 0%
Average damage % 14DAT [2, 4]: 0%
Average damage % 21DAT [2, 4]: 0%
Average damage % 3DAT [2, 5]: 7%
Average damage % 7DAT [2, 5]: 0%
Average damage % 14DAT [2, 5]: 0%
Average damage % 21DAT [2, 5]: 0%
Average damage % 3DAT [2, 6]: 0%
Average damage % 7DAT [2, 6]: 0%
Average damage % 14DAT [2, 6]: 0%
Average damage % 21DAT [2, 6]: 0%
Average damage % 3DAT [2, 7]: 0%
Average damage % 7DAT [2, 7]: 0%
Average damage % 14DAT [2, 7]: 0%
Average damage % 21DAT [2, 7]: 0%
Average damage % 3DAT [2, 8]: 6%
Average damage % 7DAT [2, 8]: 0%
Average damage % 14DAT [2, 8]: 0%
Average damage % 21DAT [2, 8]: 0%
Average damage % 3DAT [2, 9]: 5%
Average damage % 7DAT [2, 9]: 0%
Average damage % 14DAT [2, 9]: 0%
Average damage % 21DAT [2, 9]: 0%
Average damage % 3DAT [2, 10]: 0%
Average damage % 7DAT [2, 10]: 0%
Average damage % 14DAT [2, 10]: 0%
Average damage % 21DAT [2, 10]: 0%
Average damage % 3DAT [2, 11]: 0%
Average damage % 7DAT [2, 11]: 0%
Average damage % 14DAT [2, 11]: 0%
Average damage % 21DAT [2, 11]: 0%
Average damage % 3DAT [2, 12]: 5%
Average damage % 7DAT [2, 12]: 0%
Average damage % 14DAT [2, 12]: 0%
Average damage % 21DAT [2, 12]: 0%
Average damage % 3DAT [2, 13]: 5%
Average damage % 7DAT [2, 13]: 0%
Average damage % 14DAT [2, 13]: 0%
Average damage % 21DAT [2, 13]: 0%
Average damage % 3DAT [2, 14]: 0%
Average damage % 7DAT [2, 14]: 0%
Average damage % 14DAT [2, 14]: 0%
Average damage % 21DAT [2, 14]: 0%
Average damage % 3DAT [2, 15]: 0%
Average damage % 7DAT [2, 15]: 0%
Average damage % 14DAT [2, 15]: 0%
Average damage % 21DAT [2, 15]: 0%
herbicide tolerance conferred by the thifensulfuron hydrolase (ALT-1, ALT-2 and ALT-3) ([2]; transgenic maize plants): conferred a high level of Sulfometuron-methyl herbicide tolerance
Average damage % 3DAT ([3]; CK2 (wild-type maize), 4-fold field concentration, 3 days after spraying): 44%
Average damage % 7DAT ([3]; CK2 (wild-type maize), 4-fold field concentration, 7 days after spraying): 87%
Average damage % 14DAT ([3]; CK2 (wild-type maize), 4-fold field concentration, 14 days after spraying): 100%
Average damage % 21DAT ([3]; CK2 (wild-type maize), 4-fold field concentration, 21 days after spraying): 100%
herbicide tolerance of wild-type plants ([3]; wild-type maize plants): not tolerant
